According to patent publication US11781160B2, “Methods for the production of methacrylates” (priority 2018, dated 2023):

Experiments:
[1] = test system: E. coli MG1655 soxR(R20H); test: Growth in MSX medium with 20% (v/v) BMA, single mutant; type: cell-based, Escherichia coli; conditions: 20% (v/v) BMA added immediately after inoculation
[2] = test system: E. coli MG1655 soxR(R20H)acrR(T32fs); test: Growth in MSX medium with 20% (v/v) BMA, double mutant; type: cell-based, Escherichia coli
[3] = test system: gene transcription in strain 2; test: Transcriptome analysis with added BMA, strain 2
Method: (§1) Transcriptome analysis was carried out to characterize transcriptional activity in mutant microorganisms using standard methods.
(§2) Sample Preparation • 1) Streak strains onto fresh MSX agar (15 g/L) plates directly from the cryostocks and incubate overnight at 37° C. • 2) Isolate single colonies and inoculate pre-cultures in MSX, using 50 ml shake flasks. Incubate overnight at 37° C. and 250 rpm. • 3) Inoculate cultures in MSX to an initial OD600 of 0.05, using 250 mL pyrex shake flasks with 24/29 neck join. Incubate at 37° C. and 250 rpm. Do 4 biological replicates (3 replicates for sequencing plus one backup)—4 flasks per strain. • 4) Seal shake flasks with sterile Suba seals. To monitor OD, take samples using a sterile syringe and needle after first swabbing the Suba seals with 70% ethanol. Monitor OD. • 5) When OD reaches 0.3, collect first sample for RNA extraction (“before” sample) into a pre-chilled falcon. Keep samples on ice. • 6) Immediately after, add 20% (v/v) BMA. Re-incubate cultures. • 7) Quickly process the samples according to the RNeasy kit protocol, until step 6 of protocol 1. Always keep samples on ice and store it at −80° C. until further use, if possible, flash freeze in liquid nitrogen it before storing. • 8) One hour after the first sample collection/BMA addition, collect the second sample for RNA extraction (“after” sample). Proceed as explained before. • 9) Continue to monitor the OD until the cultures reach 24 h. • To summarise, each strain tested will have 6 samples to send for sequencing, 3 collected right before the addition and 3 collected one hour after, plus 1 “back-up” for before and after, in case something goes wrong during extraction (8 samples total). Besides the WT strain with the addition of BMA, samples were also collected from a WT culture with no BMA, one hour after reaching OD of 0.3, as a control.
(§3) Transcription was compared for a double mutant and the wild-type in the presence and absence of BMA relative to the level in the wild type in the absence of BMA. For the avoidance of doubt the level in the table is the ratio of the level in the strain under the BMA exposure relative to the level in the wild type in the absence of added BMA.

[4] = test system: gene transcription in strain 18; test: Transcriptome analysis with added BMA, strain 18
Method: as §1, §2, §3

[5] = 20% (v/v) BMA added immediately after inoculation

## C=C(C)C(=O)OCCCC [BMA, butyl 2-methylprop-2-enoate]
[1]
  Growth in the presence of BMA: able to grow
[2]; 20% (v/v) BMA added during mid-exponential phase
  Tolerance to BMA: enhanced tolerance to BMA compared to the soxR(R20H) mutation alone
[2]; [5]
  Growth compared with the single mutant with the soxR mutation: able to grow better than the single mutant
  Growth in the presence of BMA: able to grow
[3]
  IdhA transcription level relative to wild type without BMA: 11.32
  acrA transcription level relative to wild type without BMA: 7.33
  acrB transcription level relative to wild type without BMA: 6.68
  adiY transcription level relative to wild type without BMA: 5.37
  ariR transcription level relative to wild type without BMA: 35.30
  asr transcription level relative to wild type without BMA: 95.27
  bssR transcription level relative to wild type without BMA: 15.30
  ibpA transcription level relative to wild type without BMA: 20.83
  ibpB transcription level relative to wild type without BMA: 84.03
  narG transcription level relative to wild type without BMA: 11.38
  nirB transcription level relative to wild type without BMA: 8.77
  nirD transcription level relative to wild type without BMA: 4.33
  pspA transcription level relative to wild type without BMA: 15.40
  pspB transcription level relative to wild type without BMA: 11.46
  pspD transcription level relative to wild type without BMA: 11.22
  pspc transcription level relative to wild type without BMA: 11.88
  raiA transcription level relative to wild type without BMA: 14.09
  rmf transcription level relative to wild type without BMA: 7.05
  soxS transcription level relative to wild type without BMA: 4.10
  spy transcription level relative to wild type without BMA: 22.92
  ybfA transcription level relative to wild type without BMA: 18.45
  ybhG transcription level relative to wild type without BMA: 6.87
  ybiH transcription level relative to wild type without BMA: 8.65
  ydgU transcription level relative to wild type without BMA: 31.80
  yhjx transcription level relative to wild type without BMA: 7.35
  yibT transcription level relative to wild type without BMA: 36.87
  ymgA transcription level relative to wild type without BMA: 35.59
  ymgC transcription level relative to wild type without BMA: 42.36
  ynfM transcription level relative to wild type without BMA: 14.42
  yohk transcription level relative to wild type without BMA: 8.45
[4]
  IdhA transcription level relative to wild type without BMA: 56.74
  acrA transcription level relative to wild type without BMA: 6.47
  acrB transcription level relative to wild type without BMA: 10.12
  adiY transcription level relative to wild type without BMA: 21.13
  ariR transcription level relative to wild type without BMA: 25.19
  asr transcription level relative to wild type without BMA: 74.22
  bssR transcription level relative to wild type without BMA: 134.14
  ibpA transcription level relative to wild type without BMA: 74.55
  ibpB transcription level relative to wild type without BMA: 158.35
  narG transcription level relative to wild type without BMA: 25.46
  nirB transcription level relative to wild type without BMA: 23.98
  nirD transcription level relative to wild type without BMA: 34.98
  pspA transcription level relative to wild type without BMA: 20.71
  pspB transcription level relative to wild type without BMA: 20.94
  pspD transcription level relative to wild type without BMA: 18.60
  pspc transcription level relative to wild type without BMA: 21.37
  raiA transcription level relative to wild type without BMA: 44.16
  rmf transcription level relative to wild type without BMA: 20.96
  soxS transcription level relative to wild type without BMA: 1.17
  spy transcription level relative to wild type without BMA: 4.36
  ybfA transcription level relative to wild type without BMA: 24.95
  ybhG transcription level relative to wild type without BMA: 18.85
  ybiH transcription level relative to wild type without BMA: 12.75
  ydgU transcription level relative to wild type without BMA: 28.47
  yhjx transcription level relative to wild type without BMA: 251.44
  yibT transcription level relative to wild type without BMA: 83.81
  ymgA transcription level relative to wild type without BMA: 11.97
  ymgC transcription level relative to wild type without BMA: 12.62
  ynfM transcription level relative to wild type without BMA: 55.40
  yohk transcription level relative to wild type without BMA: 14.54
